What was measured:
[1] = test system: T47D human breast carcinoma cells; assay: cells; assay type: cell-based; conditions: for activation at 0.1 µM / inhibition at 0.1 µM / IC50 / EC50: Homo sapiens, T47D; for activation at 0.1 µM: 48 h, read-out: PS [100 nM] (% stimulation); for inhibition at 0.1 µM: read-out: PI [100 nM] (% inhibition); for IC50: read-out: pIC50 (converted); for EC50: read-out: pEC50 (converted); for PS [100 nM] (% stimulation): agonistic mode, alkaline phosphatase induction (100% = 1 nM Dydrogesterone); for PS [100 nM] (% stimulation) / PI [100 nM] (% inhibition): compound 100 nM; for PS [100 nM] (% stimulation) / PI [100 nM] (% inhibition) / pIC50: T47D cells; for PI [100 nM] (% inhibition): antagonistic mode, inhibition of alkaline phosphatase induction by 1 nM Dydrogesterone; for pIC50: antagonistic potency against 1 nM Dydrogesterone
Procedure: The progesterone-dependent modulation of alkaline phosphatase expression was examined using T47D human breast carcinoma cells [Keydar et al., 1979]. The assay was performed as previously described by Di Lorenzo et al. (1991) with the modification of using Dydrogesterone as comparative progestin to determine the antagonistic and agonistic activity.
The cell line was purchased from CLS Cell Lines Service (Hildastrasse 21, D-69214 Eppelheim, Germany). In brief, the cells were plated in 96-well plates at 40,000 cells/well using the following growth medium: RPMI 1640 with: 10% FBS, 1 mM Sodium Pyruvat MEM, 10 mM Hepes, 0.01 mg/ml Bovine insulin, and 25 μg/ml Gentamycin. After 24 h of cultivation, the growth medium was replaced with medium containing 2% fetal bovine serum and the test compounds were added to each well to achieve the appropriate compound concentration: For determination of agonistic activity only the test compounds were added; for measurement of antagonistic activity the test compounds and additionally Dydrogesterone as standard progesterone agonist was added to a final concentration of 1 nM. After 48 h of cultivation, the medium was removed and the cells were washed with 200 μl of Dulbecco's phosphate-buffered saline without calcium and magnesium (PBS(−)). Then the cells were fixed with 3.7% formaldehyde in phosphate-buffered saline for 15 min at 22° C. After washing the cells with PBS, 100 μl of a […] (pNPP) solution (pNPP Liquid Substrate System; Sigma) was added to each well and incubated for 2 h at room temperature protected from light. The reaction was stopped with 100 μl 1N NaOH and the absorbance was measured with a spectrophotometer (Victor, Perkin Elmer) at 405 nm. The results are expressed as alkaline phosphatase induction (as 100% with 1 nM Dydrogesterone) or inhibition (against alkaline phosphatase induction by 1 nM Dydrogesterone) at a certain concentration of test compound.
% stimulation=(effect compound−basal)/(effect dydro 1 nM−basal)*100% inhibition of 1 nM Dydro=100*{1-[(effect compound−basal)/(effect dydro 1 nM−basal)]}
For each compound the % inhibition (PI) and % stimulation (PS), respectively, at a compound concentration of 100 nM was determined. For selected compounds, the corresponding values were measured for several different concentrations, and subsequently were plotted against the concentration of the test compound, and used to calculate the IC50 value (for the antagonistic potency; the IC50 value is the concentration (nM), required to reduce the maximal response by 50%) and EC50 values (for the agonistic potency; the EC50 value is the effective concentration (nM) that produced 50% of the maximum response), respectively.

[2] = molecular target: T1, human progesterone receptor (Homo sapiens, UniProt P06401); assay: Progesterone receptor binding assay, human PR (CEREP); conditions: 3H-R5020 as ligand, MCF7 cells as source of PR; read-out: Human PR binding (pKi) (converted)
T1 sequence (P06401 679-933 limits assumed): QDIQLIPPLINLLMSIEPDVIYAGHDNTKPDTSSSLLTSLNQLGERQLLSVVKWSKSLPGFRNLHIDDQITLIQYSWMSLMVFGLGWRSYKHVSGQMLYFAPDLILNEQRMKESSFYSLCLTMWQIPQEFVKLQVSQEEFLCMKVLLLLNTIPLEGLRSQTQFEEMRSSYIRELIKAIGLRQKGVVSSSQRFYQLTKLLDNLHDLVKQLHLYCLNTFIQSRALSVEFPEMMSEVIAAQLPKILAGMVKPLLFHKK
Procedure: The progesterone receptor (PR) binding assays were performed at CEREP (Celle I'Evescault, France).
The binding to the human progesterone receptor (Assay Cat No: Progesterone receptor-814h) was be measured using 3H-R5020 as ligand and MCF7 cells as the source of progesterone receptor. The assay is performed as described by Eckert & Katzenellenbogen [1982]. The binding to the bovine progesterone receptor (Assay Cat No: Progesterone receptor-814) was measured using 3H-R5020 as ligand and uterus tissue as the source of progesterone receptor. The assay was performed as described by Hurd & Moudgil [1988].
The results of the receptor binding assay are presented as the individual pKi values, which were determined by measuring the binding activity to the human or bovine PR, as indicated, for a concentration range of each compound.

Row | Structure (SMILES) | activation at 0.1 µM [1] [%] | inhibition at 0.1 µM [1] [%] | IC50 [1] [nM] | Ki [2] [nM] | further results
1 | CC(=O)[C@H]1CC[C@H]2[C@@H]3C=CC4=CC(=O)CC[C@@]4(C)[C@@H]3[C@@H](OC(=O)Nc3ccc4c(c3)N(C)C(=O)CO4)C[C@]12C [compound 101, (4-Methyl-3-oxo-3,4-dihydro-2H-benzo[1,4]oxazin-6-yl)-carbamic acid dydrogesterone-11-yl ester] | 0 | 72 | 79.4 | 316 | –
2 | CC(=O)[C@H]1CC[C@H]2[C@@H]3C=CC4=CC(=O)CC[C@@]4(C)[C@@H]3[C@@H](OC(=O)Nc3ccc4c(=O)cc(C)oc4c3)C[C@]12C [compound 77, (2-Methyl-4-oxo-4H-chromen-7-yl)-carbamic aciddydrogesterone-11-yl ester] | – | – | – | ≥ 631 | –
3 | CC(=O)[C@H]1CC[C@H]2[C@@H]3C=CC4=CC(=O)CC[C@@]4(C)[C@@H]3[C@@H](OC(=O)Nc3ccc4[nH]ccc4c3)C[C@]12C [compound 91, (1H-Indol-5-yl)-carbamic aciddydrogesterone-11-yl ester] | 1 | 58 | 100 | ≥ 631 | –
4 | CCO[C@]1(C(C)=O)CC[C@H]2[C@@H]3C=CC4=CC(=O)C5CC5[C@@]4(C)[C@@H]3[C@@H](OC(=O)Nc3cccc(OC)c3)C[C@@]21C (stereo partly drawn) [Compound No. 29] | 0 | 87 | 5.01 | 398 | –
5 | COc1cccc(NC(=O)O[C@H]2C[C@]3(C)[C@@H](C(C)=O)CC[C@H]3[C@@H]3C=CC4=CC(=O)CC[C@@]4(C)[C@@H]32)c1 [Compound No. 15, (3-Methoxy-phenyl)-carbamic acid dydrogesterone-11β-yl ester] | -3 | 43 | 126 | – | –
6 | CC(=O)[C@H]1CC[C@H]2[C@@H]3C=CC4=CC(=O)CC[C@@]4(C)[C@@H]3[C@@H](OC(=O)NCc3cccc(F)c3)C[C@]12C [compound 78, (3-Fluoro-benzyl)-carbamic aciddydrogesterone-11-yl ester] | – | – | – | 398 | –
7 | CC(=O)[C@H]1CC[C@H]2[C@@H]3C=CC4=CC(=O)CC[C@@]4(C)[C@@H]3[C@@H](OC(=O)Nc3cccc(OC(F)(F)F)c3)C[C@]12C [compound 63, (3-Trifluoromethoxy-phenyl)-carbamic acid dydrogesterone-11-yl ester] | – | – | – | ≥ 631 | –
8 | CCNC(=O)O/N=C/c1cccc(NC(=O)O[C@H]2C[C@]3(C)[C@@H](C(C)=O)CC[C@H]3[C@@H]3C=CC4=CC(=O)CC[C@@]4(C)[C@@H]32)c1 [Compound No. 33, [3-(N-Ethylcarbamoyl-oximino-formyl)-phenyl]-carbamic acid dydrogesterone-11β-yl ester] | 56 | -29 | – | – | EC50 [1]: 200 nM
9 | COc1ccc(C(=O)O[C@H]2C[C@]3(C)[C@@H](C(C)=O)CC[C@H]3[C@@H]3C=CC4=CC(=O)CC[C@@]4(C)[C@@H]32)cc1 [Compound No. 22, 4-Methoxy-benzoic acid dydrogesterone-11β-yl ester] | 29 | 55 | 20 | – | EC50 [1]: 12.6 nM
10 | CC(=O)[C@H]1CC[C@H]2[C@@H]3C=CC4=CC(=O)CC[C@@]4(C)[C@@H]3C(OC(=O)Nc3ccc4c(c3)S(=O)(=O)C=C4)C[C@]12C (stereo partly drawn) [compound 98, (1,1-Dioxo-1H-1lambda*6*-benzo[b]thiophen-6-yl)-carbamicacid dydrogesterone-11-yl ester] | – | – | – | – | PS [100 nM] (% stimulation) [1]: 1.0%; PI [100 nM] (% inhibition) [1]: 61.0%; pIC50 [1]: 7.0
11 | CC(=O)[C@H]1CC[C@H]2[C@@H]3C=CC4=CC(=O)CC[C@@]4(C)[C@@H]3[C@@H](OC(=O)Nc3ccc(F)c(C#N)c3)C[C@]12C [compound 85, (3-Cyano-4-fluoro-phenyl)-carbamic acid dydrogesterone-11-yl ester] | – | – | – | 501 | –
12 | CC(=O)[C@H]1CC[C@H]2[C@@H]3C=CC4=CC(=O)CC[C@@]4(C)[C@@H]3C(OC(=O)Nc3ccc(OC(F)F)cc3)C[C@]12C (stereo partly drawn) [compound 75, (4-Difluoromethoxy-phenyl)-carbamic acid dydrogesterone-11-yl ester] | – | – | – | – | PS [100 nM] (% stimulation) [1]: 0.0%; PI [100 nM] (% inhibition) [1]: 59.0%; pIC50 [1]: 6.9
13 | CC(=O)[C@H]1CC[C@H]2[C@@H]3C=CC4=CC(=O)CC[C@@]4(C)[C@@H]3[C@@H](OC(=O)Nc3cccc(C#N)c3)C[C@]12C [compound 71, (3-Cyano-phenyl)-carbamic aciddydrogesterone-11-yl ester] | – | – | – | ≥ 631 | –
14 | COc1ccccc1N1CCN(C(=O)O[C@H]2C[C@]3(C)[C@@H](C(C)=O)CC[C@H]3[C@@H]3C=CC4=CC(=O)CC[C@@]4(C)[C@@H]32)CC1 [compound 43, 4-(2-Methoxy-phenyl)-piperazine-1-carboxylic aciddydrogesterone-11-yl ester] | – | – | – | ≥ 631 | –
15 | CSc1ccc(NC(=O)OC2C[C@]3(C)[C@@H](C(C)=O)CC[C@H]3[C@@H]3C=CC4=CC(=O)CC[C@@]4(C)[C@H]23)cc1 (stereo partly drawn) [compound 94, (4-Methylsulfanyl-phenyl)-carbamic acid dydrogesterone-11-yl ester] | – | – | – | – | PS [100 nM] (% stimulation) [1]: 1.0%; PI [100 nM] (% inhibition) [1]: 61.0%; pIC50 [1]: 7.0
16 | CC(=O)[C@H]1CC[C@H]2[C@@H]3C=CC4=CC(=O)CC[C@@]4(C)[C@@H]3[C@@H](OC(=O)Nc3cccc(/C=N/O)c3)C[C@]12C [Compound No. 32, [3-(Hydroxyimino-methyl)-phenyl]-carbamic acid dydrogesterone-11-yl ester] | – | – | – | 316 | –
17 | CC(=O)[C@H]1CC[C@H]2[C@@H]3C=CC4=CC(=O)CC[C@@]4(C)[C@@H]3[C@@H](OC(=O)NC(C)C)C[C@]12C [Compound No. 1, Dydrogesterone-11β-yl isopropylcarbamate] | -3 | 46 | 158 | – | –
18 | COc1cc(NC(=O)OC2C[C@]3(C)[C@@H](C(C)=O)CC[C@H]3[C@@H]3C=CC4=CC(=O)CC[C@@]4(C)[C@H]23)cc(-n2cnnn2)c1 (stereo partly drawn) [compound 104, (3-Methoxy-5-tetrazol-1-yl-phenyl)-carbamic aciddydrogesterone-11-yl ester] | – | – | – | – | PS [100 nM] (% stimulation) [1]: 1.0%; PI [100 nM] (% inhibition) [1]: 45.0%; pIC50 [1]: 6.9
19 | CC(=O)[C@H]1CC[C@H]2[C@@H]3C=CC4=CC(=O)CC[C@@]4(C)[C@@H]3[C@@H](OC(=O)NCc3ccc(S(C)(=O)=O)cc3)C[C@]12C [compound 67, (4-Methanesulfonyl-benzyl)-carbamic acid dydrogesterone-11-yl ester] | – | – | – | ≥ 631 | –
20 | CCO[C@]1(C(C)=O)CC[C@H]2[C@@H]3C=CC4=CC(=O)CC[C@@]4(C)[C@@H]3[C@@H](OC(=O)c3ccccc3)C[C@@]21C [Compound No. 23, Benzoic acid 17-ethoxy-dydrogesterone-11β-yl ester] | 16 | 69 | 15.8 | – | –

Reference: patent US20080249075A1, “C11 Modified Retrosteroids as Progesterone Receptor Modulator Compounds” (Solvay Pharmaceuticals GmbH, priority 2007, published 2008)
